Where two headings read alike, the source gives them in different places.
What was measured:
[1] = molecular target: NaChBac (Halalkalibacterium halodurans (Bacillus halodurans), UniProt Q9KCR8); test: cell-based; type: cell-based; details: for inhibition at 7 µM: HEK293, read-out: inhibition of WT NaChBac peak currents
[2] = molecular target: human NaV1.7 (Homo sapiens, UniProt Q15858); test: cell-based; type: cell-based
[3] = test system: F227A NaChBac; type: cell-based, Bacillus halodurans
[4] = test system: F224A NaChBac; type: cell-based, Bacillus halodurans; details: for effect on F224A NaChBac channel currents: 7 µM

human NaV1.7, sequence (Q15858 whole entry): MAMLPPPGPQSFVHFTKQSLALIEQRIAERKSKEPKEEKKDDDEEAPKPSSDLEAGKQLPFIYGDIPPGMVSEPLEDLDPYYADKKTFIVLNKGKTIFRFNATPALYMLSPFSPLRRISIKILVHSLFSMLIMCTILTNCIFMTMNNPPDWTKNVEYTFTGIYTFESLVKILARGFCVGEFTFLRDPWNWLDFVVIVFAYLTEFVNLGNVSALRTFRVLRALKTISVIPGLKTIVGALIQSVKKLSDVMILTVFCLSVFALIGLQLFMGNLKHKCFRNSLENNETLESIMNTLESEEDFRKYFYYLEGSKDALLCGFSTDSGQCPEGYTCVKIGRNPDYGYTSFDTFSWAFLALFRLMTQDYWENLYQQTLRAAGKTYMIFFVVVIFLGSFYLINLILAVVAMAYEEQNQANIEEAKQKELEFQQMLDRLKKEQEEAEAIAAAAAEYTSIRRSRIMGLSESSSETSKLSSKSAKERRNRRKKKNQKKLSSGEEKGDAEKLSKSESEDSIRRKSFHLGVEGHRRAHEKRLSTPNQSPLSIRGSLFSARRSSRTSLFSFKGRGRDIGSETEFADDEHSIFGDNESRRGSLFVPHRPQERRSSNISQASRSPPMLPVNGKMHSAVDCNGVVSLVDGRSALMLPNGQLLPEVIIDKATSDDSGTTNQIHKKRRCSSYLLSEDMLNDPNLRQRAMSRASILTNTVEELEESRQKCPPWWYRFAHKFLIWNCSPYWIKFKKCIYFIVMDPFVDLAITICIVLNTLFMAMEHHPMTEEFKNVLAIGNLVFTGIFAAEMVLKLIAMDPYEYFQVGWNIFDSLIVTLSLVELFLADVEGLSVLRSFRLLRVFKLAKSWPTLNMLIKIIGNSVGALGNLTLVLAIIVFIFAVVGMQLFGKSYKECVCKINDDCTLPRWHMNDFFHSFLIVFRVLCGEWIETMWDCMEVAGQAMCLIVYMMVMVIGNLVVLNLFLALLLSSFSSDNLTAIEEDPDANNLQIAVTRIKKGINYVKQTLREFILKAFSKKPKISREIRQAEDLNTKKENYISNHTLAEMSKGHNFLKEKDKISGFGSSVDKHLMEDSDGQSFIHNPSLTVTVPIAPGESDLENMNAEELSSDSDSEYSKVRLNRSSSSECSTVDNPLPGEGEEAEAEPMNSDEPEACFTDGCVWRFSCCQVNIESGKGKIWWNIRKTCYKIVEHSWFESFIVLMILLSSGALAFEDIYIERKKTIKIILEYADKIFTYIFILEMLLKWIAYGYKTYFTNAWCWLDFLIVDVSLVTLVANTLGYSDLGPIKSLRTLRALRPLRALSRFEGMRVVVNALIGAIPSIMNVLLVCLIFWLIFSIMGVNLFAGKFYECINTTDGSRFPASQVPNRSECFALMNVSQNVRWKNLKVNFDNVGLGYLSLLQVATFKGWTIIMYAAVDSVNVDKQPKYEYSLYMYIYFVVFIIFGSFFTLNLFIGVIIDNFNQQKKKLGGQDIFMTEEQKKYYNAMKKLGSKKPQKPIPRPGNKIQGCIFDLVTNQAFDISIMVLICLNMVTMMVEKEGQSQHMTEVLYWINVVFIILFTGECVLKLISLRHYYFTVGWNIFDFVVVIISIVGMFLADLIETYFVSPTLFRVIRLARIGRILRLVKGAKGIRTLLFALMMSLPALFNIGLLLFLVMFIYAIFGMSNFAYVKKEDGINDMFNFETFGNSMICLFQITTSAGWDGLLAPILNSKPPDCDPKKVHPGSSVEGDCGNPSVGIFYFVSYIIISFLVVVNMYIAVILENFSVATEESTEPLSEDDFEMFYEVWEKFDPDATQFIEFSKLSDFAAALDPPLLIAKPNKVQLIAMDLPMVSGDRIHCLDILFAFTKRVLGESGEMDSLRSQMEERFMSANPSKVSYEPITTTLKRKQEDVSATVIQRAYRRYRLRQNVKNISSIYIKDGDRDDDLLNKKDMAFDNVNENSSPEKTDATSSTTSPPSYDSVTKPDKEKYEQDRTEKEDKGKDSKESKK
NaChBac, sequence (Q9KCR8 1-274): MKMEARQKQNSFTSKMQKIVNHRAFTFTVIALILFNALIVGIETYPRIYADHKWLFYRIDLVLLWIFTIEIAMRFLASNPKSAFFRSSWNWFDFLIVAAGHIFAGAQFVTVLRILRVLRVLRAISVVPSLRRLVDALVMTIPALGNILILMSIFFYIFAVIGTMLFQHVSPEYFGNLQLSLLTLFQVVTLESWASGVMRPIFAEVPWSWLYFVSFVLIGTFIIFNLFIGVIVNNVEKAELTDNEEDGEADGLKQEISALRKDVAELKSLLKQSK

For `NC(=O)N1c2ccccc2CC(=O)c2ccccc21` [oxcarbazepine], the “% of block in NaChBac” value ([1]; hek 293 cells) was 18.2±2.5%.

For `COc1ccc(CCN(C)CCCOc2nsc(-c3ccccc3)n2)cc1OC` [kc12291], the “% of block in NaChBac” value ([1]; hek 293 cells) was 76.3±1.1%.

In the case of `Cc1cccc(C)c1OCC(C)N` (stereo not shown) [Mexiletine], the “% of block in NaChBac” value ([1]; hek 293 cells) is reported as 74.2±1.8%.

ProTx-I was tested, and the “% of block in NaChBac” value [1] was -2.0±3.0%.

For ProTx-II, the “% of block in NaChBac” value [1] was 7.7±3.3% and the “effect on NaChBac channel currents” value [1] was “no effect”.

For `Nc1c(Br)cc(Br)cc1CN[C@H]1CC[C@H](O)CC1` [Ambroxol], the “G–V slope factor k[n], NaChBac, after compound” value (“G–V slope factor k[n], NaChBac” for short) [1] was 5.7 ± 0.6, the “effect on NaChBac channel currents” value [1] was “robust inhibition” and the “% of block in NaChBac” value ([1]; hek 293 cells) was 93.6±3.8%. The “G–V slope factor k[n], NaV1.7, after compound” value [2] was 6.7 ± 0.2 and the “effect on NaV1.7 channel currents” value [2] was “robust inhibition”.

With `COc1ccccc1OCC(O)CN1CCN(CC(=O)Nc2c(C)cccc2C)CC1` (stereo not shown) [Ranolazine] the “% of block in NaChBac” value ([1]; hek 293 cells) was 42.5±4.3%.

In the case of `Cc1cccc(C)c1NC(=O)C1CCCCN1C` (stereo not shown) [Mepivacaine], the “% of block in NaChBac” value ([1]; hek 293 cells) is reported as 67.7±2.5%.

With Huwentoxin-IV the “% of block in NaChBac” value [1] was -6.7±2.9%.

In the case of `CC[N+](CC)(CC)CC(=O)Nc1c(C)cccc1C` [QX-314], the “% of block in NaChBac” value ([1]; hek 293 cells) is reported as 16.2±2.6%.

`COc1cc(NC(=O)c2ccc(-c3ccc(Cl)cc3)o2)cc(OC)c1` [A-803467] was tested, and the “% of block in NaChBac” value [1] was -6.3±4.1% and the “effect on NaChBac channel currents” value [1] was “no effects”.

For GSMTx-4, the “% of block in NaChBac” value [1] was -5.1±3.0%.

`NC1=N[C@H](O)[C@H]2[C@H]3O[C@]4(O)O[C@@H]([C@@H](O)[C@@]2(N1)[C@@H]4O)[C@]3(O)CO` [ttx, tetrodotoxin] was tested, and the “% of block in NaChBac” value [1] was 0.5±3.6% and the “effect on NaChBac channel currents” value [1] was “did not significantly alter currents”.

With `CCCCN1CCCCC1C(=O)Nc1c(C)cccc1C` (stereo not shown) [Bupivacaine] the “% of block in NaChBac” value ([1]; hek 293 cells) was 46.6±2.9%.

`Cc1ccc(C(=O)C(C)CN2CCCCC2)cc1` (stereo not shown) [Tolperisone] was tested, and the “% of block in NaChBac” value ([1]; hek 293 cells) was 86.2±2.5%.

`Cc1cccc(C)c1NC(=O)CC12CCCN1CCC2` [Pilsicaineide] was tested, and the “% of block in NaChBac” value [1] was 50.5±2.7%.

For `C[C@H](NCc1ccc(OCc2ccccc2F)cc1)C(N)=O` [Ralfinamide], the “% of block in NaChBac” value ([1]; hek 293 cells) was 97.7±3.0%.

For `CCN(CC)CC(=O)Nc1c(C)cccc1C` [Lidocaine], the “lidocaine block of F227A NaChBac channels versus WT” value [3] was “no change in block”, the “G–V slope factor k[n], NaChBac” value [1] was 4.8 ± 0.4 and the “% of block in NaChBac” value ([1]; hek 293 cells) was 74.1±2.3%. The “lidocaine block of F224A NaChBac channels versus WT” value [4] was “decreased but still robust block” and the “G–V slope factor k[n], NaV1.7, after compound” value [2] was 7.8 ± 0.2.

For `COc1ccc(C(=O)O[C@H]2CC[C@@]3(C)[C@@H]4CC[C@H]5[C@]6(O)C[C@H](O)[C@@]7(O)[C@@H](CN8C[C@@H](C)CC[C@H]8[C@@]7(C)O)[C@]6(O)C[C@@]53O[C@]24O)cc1OC` [Veratridine], the “inhibition of F227A NaChBac peak currents” value ([3]; 7 µM) was 65.1 ± 1.7%, the “ΔV1/2 of G–V curve, F227A NaChBac” value ([3]; 7 µM) was 20.1 ± 2.3 mV and the “G–V slope factor k[n], NaChBac” value [1] was 10.3 ± 0.3. For the same molecule, the “Hill slope, NaChBac dose-response” value [1] was 0.3, the “effect on NaChBac channel currents” value [1] was “significantly blocked peak inward Na^+ current” and the “ΔV1/2 of G–V curve, WT NaChBac” value ([1]; 7 µM) was 7.7 ± 1.8 mV. For the same molecule, the inhibition at 7 µM ([1]; 7 µM) was 55.6 ± 2%, the “% of block in NaChBac” value ([1]; hek 293 cells) was 65.6±3.2% and the IC50 ([1]; read-out: IC50 for NaChBac) was 8.1 µM. For the same molecule, the “effect on F224A NaChBac channel currents” value [4] was “minimal or no block”.

With QX-222 the “% of block in NaChBac” value [1] was 15.3±2.7%.

In the case of `CCN1C[C@]2(COC)[C@H](O)C[C@H](OC)[C@@]34[C@@H]5C[C@@]6(O)[C@H](OC(=O)c7ccccc7)[C@@H]5[C@@](OC(C)=O)([C@@H]([C@H](OC)[C@H]23)[C@@H]14)[C@@H](O)[C@@H]6OC` [Aconitine], the “effect on F227A NaChBac channel currents” value ([3]; 7 µM) is reported as “reduced effect”, the “G–V slope factor k[n], NaChBac” value [1] is reported as 5.0 ± 0.2 and the “Hill slope, NaChBac dose-response” value [1] is reported as 1.0. The IC50 [1] was 1.3 µM, the “effect on NaChBac channel currents” value [1] was “significantly blocked peak inward Na^+ current” and the “block of NaChBac channel” value ([1]; 2 µM) was ~ 50%. The inhibition at 7 µM ([1]; 7 µM) was about 80%, the “effect on F224A NaChBac channel currents” value [4] was “no effect” and the “G–V slope factor k[n], NaV1.7, after compound” value [2] was 6.7 ± 0.2. The “Hill slope, NaV1.7 dose-response” value [2] was 1.6, the IC50 [2] was 7.4 µM and the “block of NaV1.7 channel” value ([2]; 7 µM) was ~ 50%.
